The values that follow come from PubChem BioAssay (NCI).

Test systems include COLO 205 colon; KM12 colon; MOLT-4 leukemia; EKVX NSCLC; OVCAR-5 ovarian; RXF 393 renal; M14 melanoma; HT29 colon; OVCAR-3 ovarian; T-47D breast.
Assay in all cases: NCI tumour cell line growth inhibition, 48 h

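Cultured in 96-well plates, cells were exposed to test compound for 48 hours across five concentrations. GI50 = concentration required for 50% inhibition of growth. TGI: total growth inhibition.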

With `O=C1CSC(=S)N1/N=C/c1ccc(Cl)c([N+](=O)[O-])c1`, the TGI with COLO 205 colon was above 100 µM; with KM12 colon it was above 100 µM; in the experiment with MOLT-4 leukemia it was above 100 µM; in the experiment on EKVX NSCLC it was 76.9 µM; with OVCAR-5 ovarian, above 100 µM; with RXF 393 renal it was above 100 µM. The TGI is 40.6 µM with M14 melanoma, above 100 µM in the experiment on HT29 colon, 42.5 µM with OVCAR-3 ovarian and 59.3 µM in the experiment with T-47D breast.
Consider `CCOC(=O)C(=[N+]=[N-])C(=O)CN1C(=O)c2ccccc2C1=O`, for which the TGI in the experiment with COLO 205 colon, in the experiment with MOLT-4 leukemia, with EKVX NSCLC, in the experiment with OVCAR-5 ovarian, with RXF 393 renal and in the experiment on M14 melanoma was above 100 µM throughout. Also, the TGI in the experiment on HT29 colon, in the experiment on OVCAR-3 ovarian and in the experiment with T-47D breast was above 100 µM throughout.
For `Br[Se]c1ccccn1`, the TGI with COLO 205 colon is 30.8 µM; with KM12 colon it was 31.7 µM; in the experiment on EKVX NSCLC, 31.5 µM; with OVCAR-5 ovarian, 35.1 µM; in the experiment on RXF 393 renal it was 31 µM; in the experiment with M14 melanoma, 31.7 µM. Further, the TGI amounted to 53.9 µM in the experiment on HT29 colon, 28.9 µM in the experiment on OVCAR-3 ovarian and 54.1 µM in the experiment on T-47D breast.
Turning to `Fc1cc(-c2nnc3n2N=C(c2ccc(Cl)cc2)CS3)c(Cl)cc1Cl`, the GI50 with COLO 205 colon was 7.08 µM; in the experiment on KM12 colon, 13.1 µM; in the experiment on EKVX NSCLC, 23.5 µM; in the experiment on OVCAR-5 ovarian, 15.5 µM; with RXF 393 renal, 5.57 µM; in the experiment on M14 melanoma it was 4.87 µM. Besides, the figures for the GI50 in the experiment with HT29 colon, in the experiment with OVCAR-3 ovarian and in the experiment on T-47D breast were 2.71 µM, 13.6 µM and 2.76 µM, respectively. In addition, the TGI worked out at 49.1 µM in the experiment with COLO 205 colon; 36.4 µM in the experiment with KM12 colon; 48.1 µM in the experiment on EKVX NSCLC; 32.7 µM in the experiment on OVCAR-5 ovarian; 14.7 µM in the experiment with RXF 393 renal; 17.2 µM in the experiment on M14 melanoma. Moreover, the results for the TGI in the experiment on OVCAR-3 ovarian and in the experiment with T-47D breast were 35.8 µM and 20 µM, respectively.
As for `CCOc1ccc(NC2=CC(=O)C(=O)c3ccccc32)cc1`, the TGI with COLO 205 colon is 10.9 µM; in the experiment with KM12 colon it was 12.2 µM; in the experiment on MOLT-4 leukemia, 80.1 µM; with EKVX NSCLC it was 30.9 µM; in the experiment with OVCAR-5 ovarian, 9.46 µM; with RXF 393 renal, 14.6 µM. The TGI in the experiment on M14 melanoma is 3.27 µM; in the experiment on HT29 colon it was 15.8 µM; in the experiment on OVCAR-3 ovarian it was 8.21 µM; in the experiment on T-47D breast it was 27.9 µM.
Regarding `O=C1c2ccccc2C(=O)c2c(/C=C\N3CCCCC3)ccnc21`, the TGI is 6.06 µM in the experiment with COLO 205 colon; 18 µM in the experiment on KM12 colon; 41.1 µM with MOLT-4 leukemia; 31.2 µM with EKVX NSCLC; 16.2 µM in the experiment with OVCAR-5 ovarian; 23.1 µM in the experiment on RXF 393 renal. Moreover, the TGI was 1.26 µM in the experiment with M14 melanoma, 15.1 µM with HT29 colon, 9.53 µM in the experiment on OVCAR-3 ovarian and above 44 µM in the experiment with T-47D breast.
`CN1CCN(c2ccc(Nc3ncc(Cl)c(NC[C@@H]4CCCO4)n3)cc2)CC1`: the GI50 in the experiment with COLO 205 colon was 0.547 µM; with KM12 colon, 0.362 µM; in the experiment with EKVX NSCLC it was 1.69 µM; with OVCAR-5 ovarian, 1.18 µM; in the experiment on RXF 393 renal it was 0.746 µM; in the experiment with M14 melanoma, 1.13 µM. In addition, the GI50 was 1.72 µM in the experiment with HT29 colon, 2.53 µM with OVCAR-3 ovarian and 5.8 µM in the experiment with T-47D breast. Also, the TGI in the experiment with COLO 205 colon is 2.96 µM; in the experiment with KM12 colon, 11.7 µM; in the experiment on EKVX NSCLC, 5.74 µM; in the experiment with OVCAR-5 ovarian it was above 100 µM; in the experiment with RXF 393 renal it was 3.42 µM; with M14 melanoma it was 11.2 µM. Moreover, the TGI with HT29 colon was above 100 µM; in the experiment with OVCAR-3 ovarian it was above 100 µM; in the experiment with T-47D breast, 58.3 µM.
As to `C=C(C)C12OC1[C@@]1(C)C(=CC2=O)CCC(O)[C@@H]1C` (some centres not stated), the TGI was 6.5 µM with COLO 205 colon; 16.7 µM in the experiment with KM12 colon; 3.66 µM with MOLT-4 leukemia; 6.69 µM with EKVX NSCLC; above 100 µM with OVCAR-5 ovarian; 18.1 µM with M14 melanoma. Moreover, the figures for the TGI in the experiment on HT29 colon, with OVCAR-3 ovarian and in the experiment with T-47D breast were 3.89 µM, above 100 µM and 78.4 µM, respectively.
With `COc1ccc(CN2C(=O)C(Cl)=C(Nc3cccc(C(F)(F)F)c3)C2=O)cc1`, the GI50 in the experiment on COLO 205 colon was 5.07 µM; with KM12 colon it was 7.83 µM; in the experiment on MOLT-4 leukemia it was 2.39 µM; in the experiment with EKVX NSCLC it was 8.34 µM; in the experiment with OVCAR-5 ovarian it was 18 µM; in the experiment with RXF 393 renal, 0.0458 µM. Moreover, the results for the GI50 in the experiment with HT29 colon, in the experiment on OVCAR-3 ovarian and in the experiment on T-47D breast were 4.55 µM, 4.19 µM and 3.88 µM, respectively. Also, the TGI with COLO 205 colon worked out at 18.8 µM; in the experiment with KM12 colon, 25.6 µM; in the experiment with MOLT-4 leukemia it was 9.29 µM; with EKVX NSCLC, 68.7 µM; in the experiment on OVCAR-5 ovarian it was 48.7 µM; with RXF 393 renal it was 6.01 µM. Further, the TGI in the experiment on HT29 colon was found to be 19.7 µM; with OVCAR-3 ovarian it was 15.8 µM; in the experiment with T-47D breast, 21.5 µM.
`COc1cc(-c2nc3sccn3c2-c2ccnc(NCCNS(=O)(=O)c3ccc(F)cc3)n2)ccc1F`: the GI50 in the experiment on COLO 205 colon was 1.98 µM; in the experiment on KM12 colon, 1.9 µM; with EKVX NSCLC, 3.4 µM; in the experiment on OVCAR-5 ovarian, 6.51 µM; in the experiment with RXF 393 renal, 0.75 µM; with M14 melanoma it was 0.499 µM. The figures for the GI50 in the experiment with HT29 colon, in the experiment on OVCAR-3 ovarian and with T-47D breast were 1.64 µM, 3.23 µM and 0.634 µM, respectively. Also, the TGI in the experiment with COLO 205 colon was above 100 µM; in the experiment with KM12 colon it was above 100 µM; with EKVX NSCLC it was above 100 µM; in the experiment on OVCAR-5 ovarian, above 100 µM; with RXF 393 renal, 8.2 µM; in the experiment on M14 melanoma it was above 100 µM. Moreover, the TGI is above 100 µM with HT29 colon, above 100 µM in the experiment on OVCAR-3 ovarian and 35.9 µM in the experiment with T-47D breast.
For `C[C@@H]1CC[C@H]2C(C)(C)[C@H]3C[C@@]12CC[C@@]3(C)O`, the TGI in the experiment on COLO 205 colon, in the experiment on KM12 colon, in the experiment on MOLT-4 leukemia, in the experiment with EKVX NSCLC, in the experiment with OVCAR-5 ovarian and in the experiment with M14 melanoma was above 100 µM throughout. Also, the TGI in the experiment on HT29 colon, with OVCAR-3 ovarian and with T-47D breast was above 100 µM each time.
